The values that follow come from article PMC9820167, “Design and Synthesis of Conformationally Flexible Scaffold as Bitopic Ligands for Potent D3-Selective Antagonists” (International Journal of Molecular Sciences, 2022).

What all share (assay): PDSP binding screen
The target in experiment [1] is T1, Opioid DOR (Homo sapiens, UniProt P41143).
T1 construct: Psychoactive Drug Screening Program (PDSP)
The following applies: read-out: Ki (nM) or % inhibition at 10 µM: DOR. The source says:
(§1) Based on the results in the dopamine receptor radioligand binding assays, nine flexible-based compounds were selected for further evaluation for off-target binding with other GPCRs through the Psychoactive Drug Screening Program (PDSP) (Supplemental Table S2). […] For example, many of the N-aryl piperazine-based analogs that our group developed in the past for either the D2 or D3 receptor had high affinity for the 5-HT1A receptor [55, 56, 57, 58]. […] This mitochondrial-based protein is typically used as a target for imaging neuroinflammation. The results of the PDSP-binding assays also confirmed the data obtained in our lab for the binding of this panel of nine compounds to D2 and D3 receptors (Supplemental Table S2).

Experiment [2] concerns the target T2, Serotonin 5-HT1E (Homo sapiens, UniProt P28566).
T2 construct: Psychoactive Drug Screening Program (PDSP)
The following applies: read-out: Ki (nM) or % inhibition at 10 µM: 5-HT1E; PDSP; HCl salts.
Text: as §1

In experiment [3] the target is T3, Serotonin 5-HT5A (Homo sapiens, UniProt P47898).
T3 construct: Psychoactive Drug Screening Program (PDSP)
The following applies: read-out: Ki (nM) or % inhibition at 10 µM: 5-HT5A; PDSP; HCl salts.
Text: as §1

Experiment [4] has as its target T4, Serotonin transporter (SERT) (Homo sapiens, UniProt P31645).
T4 construct: Psychoactive Drug Screening Program (PDSP)
The note with it: for inhibition at 10 µM: read-out: Ki (nM) or % inhibition at 10 µM: Serotonin transporter (SERT).
Text: as §1

Experiment [5] concerns the target T5, Serotonin 5-HT2C (Homo sapiens, UniProt P28335).
T5 sequence (P28335 33-458): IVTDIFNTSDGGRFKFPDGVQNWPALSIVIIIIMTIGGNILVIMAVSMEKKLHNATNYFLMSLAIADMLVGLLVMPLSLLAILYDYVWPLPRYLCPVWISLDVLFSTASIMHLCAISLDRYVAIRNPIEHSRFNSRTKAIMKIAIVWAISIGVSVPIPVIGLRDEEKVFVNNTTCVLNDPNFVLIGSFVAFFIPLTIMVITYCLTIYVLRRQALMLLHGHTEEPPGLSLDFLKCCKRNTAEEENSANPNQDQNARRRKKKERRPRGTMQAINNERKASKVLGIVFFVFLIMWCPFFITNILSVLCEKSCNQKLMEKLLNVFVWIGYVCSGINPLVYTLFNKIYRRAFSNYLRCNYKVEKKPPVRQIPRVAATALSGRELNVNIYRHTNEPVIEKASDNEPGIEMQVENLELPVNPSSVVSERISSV

For experiment [6], the target named is T6, Adrenergic alpha1B (Homo sapiens, UniProt P35368).
T6 sequence (P35368 1-520): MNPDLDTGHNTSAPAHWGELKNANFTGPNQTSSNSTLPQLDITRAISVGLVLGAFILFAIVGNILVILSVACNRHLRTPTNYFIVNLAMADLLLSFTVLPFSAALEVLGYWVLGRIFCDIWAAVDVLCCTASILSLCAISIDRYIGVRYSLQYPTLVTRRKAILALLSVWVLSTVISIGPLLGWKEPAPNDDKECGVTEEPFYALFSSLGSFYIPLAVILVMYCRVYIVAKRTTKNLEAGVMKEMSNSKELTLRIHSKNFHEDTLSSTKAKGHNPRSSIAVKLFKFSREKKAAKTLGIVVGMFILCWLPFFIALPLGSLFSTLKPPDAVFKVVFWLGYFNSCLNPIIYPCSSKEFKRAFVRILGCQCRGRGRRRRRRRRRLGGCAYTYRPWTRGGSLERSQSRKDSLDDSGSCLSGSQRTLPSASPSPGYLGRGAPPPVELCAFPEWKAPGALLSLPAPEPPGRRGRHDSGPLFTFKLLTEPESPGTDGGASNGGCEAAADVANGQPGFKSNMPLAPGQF

For experiment [7], the target named is Dopamine D1 (Homo sapiens, UniProt P21728). The following applies: read-out: Ki (nM) or % inhibition at 10 µM: D1.
Experiment [8] deals with Dopamine D2 (Homo sapiens, UniProt P14416).
The target of experiment [9] is Dopamine D3 (Homo sapiens, UniProt P35462).
Experiment [10] deals with Histamine H3 (Homo sapiens, UniProt Q9Y5N1). The note with it: for inhibition at 10 µM: read-out: Ki (nM) or % inhibition at 10 µM: H3.
Experiment [11] deals with T7, Muscarinic M2 (Homo sapiens, UniProt P08172).
T7 sequence (P08172 1-466): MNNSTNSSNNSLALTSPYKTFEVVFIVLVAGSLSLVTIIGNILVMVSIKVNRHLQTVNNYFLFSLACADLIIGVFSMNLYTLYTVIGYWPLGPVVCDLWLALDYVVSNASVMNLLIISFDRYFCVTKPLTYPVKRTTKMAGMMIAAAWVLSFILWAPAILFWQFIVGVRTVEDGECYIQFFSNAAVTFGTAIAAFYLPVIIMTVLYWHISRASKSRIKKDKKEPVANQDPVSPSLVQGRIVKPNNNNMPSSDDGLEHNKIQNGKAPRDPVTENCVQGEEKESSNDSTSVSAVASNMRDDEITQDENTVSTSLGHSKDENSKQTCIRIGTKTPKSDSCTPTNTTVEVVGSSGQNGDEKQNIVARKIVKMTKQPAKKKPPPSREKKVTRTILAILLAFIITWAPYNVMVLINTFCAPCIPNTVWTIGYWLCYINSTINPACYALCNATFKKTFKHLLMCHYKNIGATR
The note with it: for inhibition at 10 µM: read-out: Ki (nM) or % inhibition at 10 µM: M2.

Experiment [12] has as its target BZP Rat Brain Site. The note with it: HCl salts.
Experiment [13] addresses Dopamine active transporter (DAT) (Homo sapiens, UniProt Q01959).
Experiment [14] has as its target Benzodiazepine receptor (PBR) (Rattus norvegicus, UniProt P16257). The note with it: for Ki (nM) or % inhibition at 10 µM: Benzodiazepine receptor (PBR): PDSP, HCl salts.

The structures appear in SMILES notation.

Dopamine D3, sequence (P35462 whole entry): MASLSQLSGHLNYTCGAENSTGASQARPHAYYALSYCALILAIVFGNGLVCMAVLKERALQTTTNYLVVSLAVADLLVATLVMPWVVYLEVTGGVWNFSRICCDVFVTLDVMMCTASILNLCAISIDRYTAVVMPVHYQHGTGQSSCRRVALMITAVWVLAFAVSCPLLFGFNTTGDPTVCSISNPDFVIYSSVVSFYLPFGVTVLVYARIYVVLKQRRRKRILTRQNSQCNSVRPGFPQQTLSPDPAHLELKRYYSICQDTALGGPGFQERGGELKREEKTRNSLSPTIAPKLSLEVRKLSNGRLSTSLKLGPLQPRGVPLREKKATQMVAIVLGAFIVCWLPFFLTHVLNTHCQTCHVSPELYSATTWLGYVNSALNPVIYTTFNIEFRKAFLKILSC
T2 sequence (P28566 whole entry): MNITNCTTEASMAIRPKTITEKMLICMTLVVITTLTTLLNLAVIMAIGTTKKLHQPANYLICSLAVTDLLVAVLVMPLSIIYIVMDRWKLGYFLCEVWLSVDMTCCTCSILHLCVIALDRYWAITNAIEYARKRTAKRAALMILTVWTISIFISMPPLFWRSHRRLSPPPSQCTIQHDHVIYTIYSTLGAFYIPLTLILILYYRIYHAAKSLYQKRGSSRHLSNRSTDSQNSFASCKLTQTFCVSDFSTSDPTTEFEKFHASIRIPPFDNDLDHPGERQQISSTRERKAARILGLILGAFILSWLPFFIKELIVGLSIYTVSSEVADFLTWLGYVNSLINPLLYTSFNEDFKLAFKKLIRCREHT
T1 sequence (P41143 whole entry): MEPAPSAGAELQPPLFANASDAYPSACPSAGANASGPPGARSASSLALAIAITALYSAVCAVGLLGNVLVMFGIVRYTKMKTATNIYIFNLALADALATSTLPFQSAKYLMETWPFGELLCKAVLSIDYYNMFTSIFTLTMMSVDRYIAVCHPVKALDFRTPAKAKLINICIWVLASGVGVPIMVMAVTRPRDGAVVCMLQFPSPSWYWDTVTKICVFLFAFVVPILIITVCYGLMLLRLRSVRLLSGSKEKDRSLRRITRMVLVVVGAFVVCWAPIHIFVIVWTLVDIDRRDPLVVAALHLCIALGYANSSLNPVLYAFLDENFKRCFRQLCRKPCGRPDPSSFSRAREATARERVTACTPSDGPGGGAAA
Dopamine D1, sequence (P21728 whole entry): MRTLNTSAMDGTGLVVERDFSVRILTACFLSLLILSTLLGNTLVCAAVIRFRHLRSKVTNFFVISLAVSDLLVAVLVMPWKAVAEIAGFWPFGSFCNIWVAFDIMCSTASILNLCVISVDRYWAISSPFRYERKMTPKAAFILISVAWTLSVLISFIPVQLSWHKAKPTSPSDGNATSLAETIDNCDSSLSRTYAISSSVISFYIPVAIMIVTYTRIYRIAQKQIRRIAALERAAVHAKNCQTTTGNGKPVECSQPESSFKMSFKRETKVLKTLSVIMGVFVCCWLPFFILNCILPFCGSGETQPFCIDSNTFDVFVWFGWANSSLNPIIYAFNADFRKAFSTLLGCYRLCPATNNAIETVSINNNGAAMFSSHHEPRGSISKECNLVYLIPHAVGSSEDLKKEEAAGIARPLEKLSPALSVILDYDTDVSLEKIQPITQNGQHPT
Dopamine D2, sequence (P14416 whole entry): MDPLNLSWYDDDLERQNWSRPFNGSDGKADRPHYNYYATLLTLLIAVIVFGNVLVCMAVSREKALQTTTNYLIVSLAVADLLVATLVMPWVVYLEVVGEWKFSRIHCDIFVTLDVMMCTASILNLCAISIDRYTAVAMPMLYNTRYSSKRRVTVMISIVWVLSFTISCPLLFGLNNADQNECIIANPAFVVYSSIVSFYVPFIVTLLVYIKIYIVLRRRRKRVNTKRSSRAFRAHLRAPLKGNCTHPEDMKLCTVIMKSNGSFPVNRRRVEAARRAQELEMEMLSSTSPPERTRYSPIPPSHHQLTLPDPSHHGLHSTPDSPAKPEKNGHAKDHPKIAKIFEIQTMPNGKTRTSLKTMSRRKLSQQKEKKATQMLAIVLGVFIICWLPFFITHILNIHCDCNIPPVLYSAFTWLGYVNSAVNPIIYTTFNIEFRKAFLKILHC
Histamine H3, sequence (Q9Y5N1 whole entry): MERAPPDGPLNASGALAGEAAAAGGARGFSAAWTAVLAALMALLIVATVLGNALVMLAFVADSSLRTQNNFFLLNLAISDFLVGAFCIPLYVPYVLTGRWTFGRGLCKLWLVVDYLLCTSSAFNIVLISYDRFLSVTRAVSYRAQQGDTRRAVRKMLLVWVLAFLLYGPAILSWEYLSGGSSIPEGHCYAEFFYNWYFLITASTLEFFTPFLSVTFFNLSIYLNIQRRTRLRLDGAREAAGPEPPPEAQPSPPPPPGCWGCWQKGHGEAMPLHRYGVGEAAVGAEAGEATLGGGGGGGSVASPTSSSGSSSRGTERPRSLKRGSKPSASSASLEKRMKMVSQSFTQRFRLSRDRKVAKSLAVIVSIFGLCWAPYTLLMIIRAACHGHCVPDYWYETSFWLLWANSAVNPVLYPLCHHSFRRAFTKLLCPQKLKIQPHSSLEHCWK
T4 sequence (P31645 whole entry, species assumed): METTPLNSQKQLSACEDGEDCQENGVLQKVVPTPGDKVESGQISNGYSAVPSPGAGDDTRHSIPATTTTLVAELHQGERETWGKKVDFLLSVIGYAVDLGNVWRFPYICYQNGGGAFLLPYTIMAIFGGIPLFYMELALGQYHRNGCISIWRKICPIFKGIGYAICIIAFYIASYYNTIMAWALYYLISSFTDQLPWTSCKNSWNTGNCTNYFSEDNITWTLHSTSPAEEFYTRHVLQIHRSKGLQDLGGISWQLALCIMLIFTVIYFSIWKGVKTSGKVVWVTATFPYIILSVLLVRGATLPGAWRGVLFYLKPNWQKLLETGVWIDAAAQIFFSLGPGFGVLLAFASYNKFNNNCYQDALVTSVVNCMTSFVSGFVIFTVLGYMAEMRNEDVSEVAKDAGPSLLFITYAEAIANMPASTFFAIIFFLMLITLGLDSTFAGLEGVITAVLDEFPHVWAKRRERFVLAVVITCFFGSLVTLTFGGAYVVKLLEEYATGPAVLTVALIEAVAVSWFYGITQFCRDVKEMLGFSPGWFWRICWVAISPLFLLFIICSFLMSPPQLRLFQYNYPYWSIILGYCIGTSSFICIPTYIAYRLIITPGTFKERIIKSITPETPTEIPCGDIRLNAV
Dopamine active transporter (DAT), sequence (Q01959 whole entry, species assumed): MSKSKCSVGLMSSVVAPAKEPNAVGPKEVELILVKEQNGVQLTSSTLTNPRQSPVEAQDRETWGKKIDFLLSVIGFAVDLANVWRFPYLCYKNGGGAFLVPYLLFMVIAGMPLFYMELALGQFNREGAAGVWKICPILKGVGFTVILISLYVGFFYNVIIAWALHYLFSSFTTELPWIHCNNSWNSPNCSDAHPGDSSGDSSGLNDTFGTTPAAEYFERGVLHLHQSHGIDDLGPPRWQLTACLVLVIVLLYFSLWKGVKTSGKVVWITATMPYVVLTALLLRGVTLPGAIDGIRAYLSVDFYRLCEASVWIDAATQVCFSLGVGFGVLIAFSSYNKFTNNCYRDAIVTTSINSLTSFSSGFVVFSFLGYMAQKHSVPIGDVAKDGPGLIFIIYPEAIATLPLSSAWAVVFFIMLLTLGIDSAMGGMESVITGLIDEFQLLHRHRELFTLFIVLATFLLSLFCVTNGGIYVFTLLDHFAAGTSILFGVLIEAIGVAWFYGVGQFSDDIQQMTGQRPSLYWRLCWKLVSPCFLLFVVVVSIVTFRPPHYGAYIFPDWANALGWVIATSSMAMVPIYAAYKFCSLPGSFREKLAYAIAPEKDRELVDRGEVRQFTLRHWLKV
T3 sequence (P47898 whole entry): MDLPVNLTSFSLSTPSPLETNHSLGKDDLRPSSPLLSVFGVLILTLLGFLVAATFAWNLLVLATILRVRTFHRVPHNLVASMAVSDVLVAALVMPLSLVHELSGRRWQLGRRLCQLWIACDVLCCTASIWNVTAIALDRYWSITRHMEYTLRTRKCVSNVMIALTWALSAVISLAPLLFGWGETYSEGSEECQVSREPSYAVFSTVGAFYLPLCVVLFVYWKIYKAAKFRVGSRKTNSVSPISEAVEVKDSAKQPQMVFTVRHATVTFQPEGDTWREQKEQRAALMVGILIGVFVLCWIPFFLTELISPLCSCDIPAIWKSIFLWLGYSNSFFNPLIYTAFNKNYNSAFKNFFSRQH

For `CCN(CCCNC(=O)c1ccc2ccccc2c1)CCNC(=O)c1cc(Br)cc(OC)c1OC` [21a, N-(3-((2-(5-Bromo-2,3-dimethoxybenzamido)ethyl)(ethyl)amino)propyl)-2-naphthamide], the inhibition at 10 µM in experiment [1], in [2], in [3], in experiment [7], in experiment [10] and in experiment [11] was less than 50% throughout. The Ki in experiment [4] (PDSP, HCl salts) amounted to 3.01 µM; in experiment [5], 1.33 µM; in experiment [6], 3.94 µM; in experiment [8], 0.216 µM; in [9], 0.00019 µM; in experiment [13] it was 0.089 µM. Moreover, the Ki in experiment [14] was determined as 0.009 µM. Further, the “Ki (nM) or % inhibition at 10 µM: BZP Rat Brain Site” value in experiment [12] was “N/A (N/A; not active means less than 50% inhibition that was obtained in primary binding assay at 10 µM of the compound)”. Moreover, the “Ki (nM) or % inhibition at 10 µM: Benzodiazepine receptor (PBR)” value in experiment [14] is “relatively high affinity”.
In the case of `CCN(CCCNC(=O)c1cc2ccccc2[nH]1)CCNC(=O)c1cc(Br)cc(OC)c1OC` [21d, N-(3-((2-(5-Bromo-2,3-dimethoxybenzamido)ethyl)(ethyl)amino)propyl)-1H-indole-2-carboxamide], the inhibition at 10 µM in experiment [1], in [2], in experiment [3], in experiment [4], in experiment [7] and in experiment [11] was less than 50% each time. Besides, the Ki was 2.1 µM in experiment [5]; more than 10 µM in experiment [6]; 0.089 µM in experiment [8]; 0.00025 µM in experiment [9]; more than 10 µM in [10]; 0.09 µM in experiment [13]. This compound also came in with a Ki in [14] of 1.22 µM. Besides, the “Ki (nM) or % inhibition at 10 µM: BZP Rat Brain Site” value in [12] is “N/A (N/A; not active means less than 50% inhibition that was obtained in primary binding assay at 10 µM of the compound)”.
As for `CCN(CCCNC(=O)c1cn2ccccc2n1)CCNC(=O)c1cc(Br)cc(OC)c1OC` [21e, N-(3-((2-(5-Bromo-2,3-dimethoxybenzamido)ethyl)(ethyl)amino)propyl)imidazo[1,2-a]pyridine-2-carboxamide], the inhibition at 10 µM in experiment [1], in experiment [2], in experiment [3], in [4], in experiment [6] (read-out: Ki (nM) or % inhibition at 10 µM: alpha1B) and in [7] was less than 50% throughout. Also, the inhibition at 10 µM in experiment [8] (read-out: Ki (nM) or % inhibition at 10 µM: D2), in experiment [10] and in experiment [13] (read-out: Ki (nM) or % inhibition at 10 µM: Dopamine active transporter (DAT)) was less than 50% each time. Also, the Ki in [5] worked out at 5.78 µM; in experiment [9], 0.00046 µM; in experiment [11] it was 9.44 µM; in [14] it was 0.011 µM. Also, the “Ki (nM) or % inhibition at 10 µM: BZP Rat Brain Site” value in [12] is “N/A (N/A; not active means less than 50% inhibition that was obtained in primary binding assay at 10 µM of the compound)”. Further, the “Ki (nM) or % inhibition at 10 µM: Benzodiazepine receptor (PBR)” value in experiment [14] was “relatively high affinity”.
